Measured values from patent EP0702683B1, “06-SUBSTITUTED GUANINE DERIVATIVES, A PROCESS FOR THEIR PREPARATION AND THEIR USE IN TREATING TUMOUR CELLS” (Cancer Research Technology Limited, priority 1993, dated 1994).

Experiments:
ATase = target: T1, ATase (Cricetulus griseus, UniProt P26186); assay: Inactivation of ATase activity in Hamster +120 cells; type: cell-based, Chinese hamster; settings: 2 hours at 37°C, read-out: Inactivation of ATase in Mammalian Cells I50(µM) Hamster + 120
T1 construct: endogenous in cells; host or cells: Hamster +120 (V79 RJKO subline)
T1 sequence (P26186 1-209): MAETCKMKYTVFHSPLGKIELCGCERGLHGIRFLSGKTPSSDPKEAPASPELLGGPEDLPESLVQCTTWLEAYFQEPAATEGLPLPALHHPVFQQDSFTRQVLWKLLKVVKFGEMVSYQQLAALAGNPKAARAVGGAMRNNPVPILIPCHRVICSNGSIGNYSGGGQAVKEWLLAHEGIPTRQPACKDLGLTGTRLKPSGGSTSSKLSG
Procedure: Mammalian cells were cultured under standard conditions. For example, Raji (a human lymphoblastoid cell line from a Burkitt's lymphoma) cells were grown in suspension culture in RPMI medium supplemented with 10% horse serum. […]
Cells were diluted to 10^6/ml in culture medium containing either the appropriate concentration of inactivator or an equivalent volume of vehicle (DMSO). […] ATase activity was determined as described above, in duplicate sonicated cell extracts and expressed as the percentage activity remaining based on that present in the untreated controls (for example 350-450 fm/mg in Raji cells).

A375 tumour xenografts = assay: Sensitization of A375 tumour xenografts to BCNU (tumour volume); type: in vivo, nude mice; settings: 30 or 60 mg/kg i.p. 60 - 90 minutes prior to 10 - 25 mg/kg BCNU, Figs. 9-13, in words
Procedure: 0X6 OPT, England (OLAC mice). […] For this reason lower doses were administered.
A375M (human melanoma) cells were grown in DMEM containing 10% fetal bovine serum. The cells were prepared for in vivo inoculation by incubation with 0.01% trypsin.
Cells (10^6) in 100µl of PBS were injected subcutaneously into the right-hand flank of 8-10 week old nu/nu athymic mice. These cells were allowed to develop into a tumour for 3-4 weeks for passaging into experimental animals. Tumour blocks measuring 2mm x 2mm x 2mm were implanted subcutaneously on the right hand flank. These animals were ready for use in inactivator experiments in 7-10 days.
Xenograft tumour measurements were taken every 1-2 days by workers using digital calipers. Tumour volume was calculated using the formula (h x w x 1) π/6. The experimental animals were also weighed every 1-2 days. Measurements continued until tumours in the control animals reached the maximum allowable volume (i.e. 1cm x 1cm x 1cm).

SMILES | IC50 (ATase) [µM] | reducing tumour volume / sensitising human melanoma xenografts to BCNU, compared with BeG (A375 tumour xenografts)
Nc1nc(OCc2ccco2)c2nc[nH]c2n1 [B.4203, O^6-furfurylguanine] | 0.12 | –
Nc1nc(OCc2cccs2)c2nc[nH]c2n1 [B.4205, O^6-thenylguanine] | – | comparable to 0^6-benzylguanine (BeG)
